Among the data in ChEMBL document CHEMBL1122795 (J Med Chem, 1984) are ED50, KI50 and LD50 values, retold here.

Data set [1] is filed under the species Canis familiaris. The data set can be described thus: Inhibition of the response to phenethylamine was measured. The data set is classed as functional. To be noted: Canis lupus familiaris.
Data set [2] is filed under the species Mus musculus. The data set can be described thus: Effective dose against oxotremorine induced tremor. Format: functional.
For a further data set, the system named is Rattus norvegicus. Description: Effective dose (p.o.) required to reverse ptosis induced by tetrabenazine in rat. Format: functional. The note with it: po.
The species named for data set [3] is Mus musculus. The data set can be described thus: Effective dose against oxotremorine induced lacrimation. Format: functional.
A further data set concerns the target T1, Monoamine oxidase (Rattus norvegicus, UniProt P19643+P21396).
T1 sequence (P19643 whole entry): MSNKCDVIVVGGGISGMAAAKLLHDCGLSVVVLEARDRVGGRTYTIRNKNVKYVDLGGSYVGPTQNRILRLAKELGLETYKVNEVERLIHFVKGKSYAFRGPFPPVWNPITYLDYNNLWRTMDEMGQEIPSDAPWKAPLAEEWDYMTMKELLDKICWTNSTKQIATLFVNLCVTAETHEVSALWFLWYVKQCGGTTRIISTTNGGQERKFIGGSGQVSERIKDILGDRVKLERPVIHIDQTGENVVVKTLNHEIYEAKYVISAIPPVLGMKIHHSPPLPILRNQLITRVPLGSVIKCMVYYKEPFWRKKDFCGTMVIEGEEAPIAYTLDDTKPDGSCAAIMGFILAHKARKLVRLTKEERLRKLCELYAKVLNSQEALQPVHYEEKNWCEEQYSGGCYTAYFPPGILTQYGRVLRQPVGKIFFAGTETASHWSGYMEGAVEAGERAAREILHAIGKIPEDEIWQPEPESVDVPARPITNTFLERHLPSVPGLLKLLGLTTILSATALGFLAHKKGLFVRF
T1 sequence (P21396 whole entry): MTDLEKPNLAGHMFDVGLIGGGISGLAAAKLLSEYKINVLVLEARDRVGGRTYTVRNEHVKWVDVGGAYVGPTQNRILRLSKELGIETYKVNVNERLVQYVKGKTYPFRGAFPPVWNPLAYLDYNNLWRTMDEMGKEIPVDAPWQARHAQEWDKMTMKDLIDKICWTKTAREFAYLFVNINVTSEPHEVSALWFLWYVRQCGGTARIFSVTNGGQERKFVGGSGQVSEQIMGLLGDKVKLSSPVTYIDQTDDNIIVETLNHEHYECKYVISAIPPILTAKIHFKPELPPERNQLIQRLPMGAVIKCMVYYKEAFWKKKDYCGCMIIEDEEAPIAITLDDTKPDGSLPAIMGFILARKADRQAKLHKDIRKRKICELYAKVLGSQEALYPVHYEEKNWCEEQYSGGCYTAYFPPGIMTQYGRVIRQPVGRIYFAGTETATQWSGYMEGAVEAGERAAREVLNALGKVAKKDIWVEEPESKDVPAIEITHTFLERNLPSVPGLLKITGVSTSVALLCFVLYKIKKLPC
The data set can be described thus: In vitro inhibitory concentration against monoamine oxidase with 5-HT as substrate. Format: protein assay. The note with it: mouse.

Data set [4] concerns Mus musculus. The data set can be described thus: Effective dose (p.o.) required to reverse ptosis induced by tetrabenazine in mouse. The data set is classed as functional. To be noted: po.
For data set [5], the species on record is Canis familiaris. Description: Potentiation of the response to norepinephrine was measured. The data set is classed as functional. To be noted: Canis lupus familiaris.
Data set [6] in a line: Acute toxicity (p.o.) after 24 hr was determined in mouse. Format: organism-based. To be noted: in vivo, po.

Consider `Cl.c1ccc2c(c1)C1c3ccccc3C2C2CNCCC12` (stereo not drawn), for which the median effective dose (ED50) is 1.2 mg/kg in the data set listed under Canis familiaris [1]; greater than 243 mg/kg in the data set listed under Mus musculus [2]; 0.5 mg/kg with Rattus norvegicus; greater than 243 mg/kg in the data set filed under Mus musculus [3]; 0.41 mg/kg with Mus musculus [4]; 0.22 mg/kg in the data set listed under Canis familiaris [5]. The same compound gave a KI50 on Monoamine oxidase greater than 0.001 M l-1.
For the compound `CN1CCC2C3c4ccccc4C(c4ccccc43)C2C1.Cl` (stereo not drawn), the ED50 in the data set listed under Mus musculus [2] came to 100 mg/kg; in the data set filed under Mus musculus [3], 36 mg/kg; in the data set with Mus musculus [4], 1 mg/kg.
On to `CN(C)CCC=C1c2ccccc2CCc2ccccc21` [AMITRIPTYLINE], for which the median effective dose (ED50) amounted to 1.1 mg/kg in the data set filed under Canis familiaris [1]; 21 mg/kg in the data set listed under Mus musculus [2]; 12 mg/kg in the data set with Rattus norvegicus; 27 mg/kg in the data set filed under Mus musculus [3]; 1.3 mg/kg in the data set with Mus musculus [4]; 1 mg/kg in the data set listed under Canis familiaris [5]. The compound further registered an LD50 at 24 h in data set [6] of 177 mg/kg.
As to `CN(C)CCCN1c2ccccc2CCc2ccccc21` [IMIPRAMINE], the ED50 in the data set filed under Canis familiaris [1] is 1.5 mg/kg; in the data set filed under Mus musculus [2] it was 70 mg/kg; with Rattus norvegicus, 4.12 mg/kg; in the data set listed under Mus musculus [3] it was 130 mg/kg; in the data set with Mus musculus [4] it was 1.3 mg/kg; in the data set listed under Canis familiaris [5], 3 mg/kg.
